According to paper PMC5653814, “Regiospecific Synthesis of Ring A Fused Withaferin A Isoxazoline Analogues: Induction of Premature Senescence by W-2b in Proliferating Cancer Cells” (Scientific Reports, 2017):
Like-named read-outs stand apart in the source and are kept apart here.

How the values were obtained:
HCT-116 cells [1] = test: MTT cell viability assay, HCT-116; assay type: cell-based, human; details: read-out: Cytotoxicity IC50, HCT-116
Experimental: (§1) The cell viability assay was performed according to the procedure previously described with minor modifications. Briefly, MCF7, HCT-116 and fR2 cells were plated in 96 well plates at a density of 5 × 10^3 cells per well and incubated overnight. […] MTT dye solution (2.5 mg/mL) was introduced to the cells in medium 4 h before the completion of the treatment period and the formed formazan crystals were solubilized with DMSO. Optical density was measured with the help of a UV-visible spectrophotometer coupled with microplate reader (TECAN, Infinite M200 Pro), the percent inhibition was calculated and IC50 values were determined with the help of GraphPad Prism software (GraphPad software Inc. CA, USA).
(§2) Data were expressed as the mean ± standard deviation of three independent experiments performed and analyzed by Student’s t-test. IC50 values were determined with the help of GraphPad Prism software Version 5.0 (GraphPad Software, Inc., USA) by taking the log of inhibitor vs. response. A 2-sided value of *P < 0.05 was considered significant in all cases.

MCF7 cells [2] = test: MTT cell viability assay, MCF7; assay type: cell-based, human; details: read-out: Cytotoxicity IC50, MCF7
Experimental: as §1, §2

fR2 cells = test: MTT cell viability assay, fR2 normal breast epithelial cells; assay type: cell-based, human; details: 48 h, read-out: Cytotoxicity IC50, fR2
Experimental: as §1, §2

[3] = as above; assay type: cell-based, human; details: human, fR2 normal breast epithelial cells, read-out: Cytotoxicity IC50, fR2
Experimental: as §1, §2

MCF7 cells [4] = test: SA-β-gal activity assay, MCF7; assay type: cell-based, human; details: MCF7, five days; doxorubicin 100 nM, WA 2–3 µM
Experimental: (§3) The procedure was followed as described previously with some modifications. Briefly, MCF7 and HCT-116 cells (0.4 × 10^6 per well) were seeded in six-well plates and treated with indicated concentrations of W-2b along with WA, vehicle and positive control doxorubicin for five days. Cells were accordingly washed twice with PBS, fixed with 4% paraformaldehyde for 5 min, rinsed twice with PBS and incubated with freshly prepared staining solution (40 mM citric acid/Na phosphate buffer, 5 mM K4[Fe(CN)6] 3H2O, 5 mM K3[Fe(CN)6], 150 mM sodium chloride, 2 mM magnesium chloride and 1 mg/ml X-gal in distilled water, pH 6.0) for 48 h at 37 °C. Stained cells were thoroughly washed and air dried in dark. Cells were then observed under bright field microscope (NIKON) for the SA-β-gal positive cells and images were captured at 20x magnification.

HCT-116 cells [5] = test: SA-β-gal activity assay, HCT-116; assay type: cell-based, human; details: HCT-116, five days; doxorubicin 100 nM, WA 2–3 µM
Experimental: as §3

[6] = tested on: 4T1 mouse mammary carcinoma; test: In vivo tumor growth, 4T1 mouse mammary carcinoma model; details: 25 mg/kg b.w. intraperitoneal, each alternate day for two weeks
Experimental: The experiment was performed according to the pre-standardized protocol with minor modifications. To evaluate the in vivo anti-tumor efficacy of W-2b, healthy female Balb/c mice (25–30 g) were taken. Animals were randomized into three groups, and six animals were taken per group. For the tumor cells implantation, mouse mammary carcinoma 4T1 cells (1 × 10^6 per 200 μL) diluted in serum-free RPMI medium were injected subcutaneously into the mammary pad of each mouse around the second right mammary gland. A week after tumor cell implantation, when the palpable mammary tumors develop, mice were injected intraperitoneally with either vehicle (normal saline) or 5-FU (25 mg/kg/b.w.) or W-2b (25 mg/kg/b.w.) in each alternative day for two weeks. Tumor sizes were measured in each alternate day after tumor cell injection, and the body weight was recorded once in a week. Mice were sacrificed on the 15th day after treatment initiation, and tumors were dissected out carefully from the mammary pad area.

[7] = Homo sapiens, HCT-116, 48 h, 48 h

| Structure (SMILES) | IC50 (HCT-116 cells [1]; 48 h) | IC50 (MCF7 cells [2]; 48 h) | IC50 (HCT-116 cells [1]; [7]) | IC50 (MCF7 cells [2]; Homo sapiens, MCF7, 48 h, 48 h) | IC50 at 48 h [3] | further results |
| --- | --- | --- | --- | --- | --- | --- |
| CC1=C(CO)C(=O)OC(C(C)C2CCC3C4CC5OC56C(O)C5ON=C(c7ccc(C(F)(F)F)cc7)C5C(=O)C6(C)C4CCC23C)C1 (stereo not drawn) [W-11b, 4-trifluorophenyl-2-isoxazoline withaferin A] | 4.16 ± 0.344 µM | 83.3 ± 6.51 µM |  |  |  | IC50 (fR2 cells): > 100 µM |
| CC1=C(CO)C(=O)O[C@@H]([C@@H](C)C2CCC3C4C[C@H]5O[C@]56[C@@H](O)[C@H]5ON=C(c7ccc(Cl)cc7)[C@H]5C(=O)[C@]6(C)C4CC[C@@]32C)C1 (stereo partly drawn) [W-1a, 4-chlorophenyl-2-isoxazoline withaferin A] |  |  | 5.62 ± 0.412 µM | 3.8 ± 0.378 µM | 45.8 ± 5.19 µM |  |
| COc1cccc2c1C(=O)c1c(O)c3c(c(O)c1C2=O)C[C@@](O)(C(=O)CO)C[C@@H]3O[C@H]1C[C@H](N)[C@H](O)[C@H](C)O1 [doxorubicin] |  |  |  |  |  | SA-β-gal staining, senescent cells (in words) (MCF7 cells [4]): substantial increase in the number of cells with distinct senescence phenotype; SA-β-gal staining, senescent cells (in words) (HCT-116 cells [5]): substantial increase in the number of cells with distinct senescence phenotype |
| CC1=C(CO)C(=O)O[C@@H]([C@@H](C)[C@H]2CC[C@H]3[C@@H]4C[C@H]5O[C@]56[C@@H](O)C=CC(=O)[C@]6(C)[C@H]4CC[C@]23C)C1 [WA, Withaferin A] |  |  | 2.58 ± 0.415 µM | 1.75 ± 0.376 µM | 43.3 ± 3.77 µM | IC50 (HCT-116 cells [1]; Homo sapiens, HCT-116, 24 h, 24 h): 4.38 ± 1.67 µM; IC50 (HCT-116 cells [1]; Homo sapiens, HCT-116, 72 h, 72 h): 2.13 ± 0.55 µM; IC50 (MCF7 cells [2]; Homo sapiens, MCF7, 24 h, 24 h): 9.18 ± 1.36 µM; IC50 (MCF7 cells [2]; Homo sapiens, MCF7, 72 h, 72 h): 1.46 ± 0.291 µM; IC50 at 24 h ([3]; 24 h): 51.1 ± 5.18 µM; IC50 at 72 h ([3]; 72 h): 38.3 ± 5.22 µM; SA-β-gal staining, senescent cells (in words) (MCF7 cells [4]): very less number of senescent cells; SA-β-gal staining, senescent cells (in words) (HCT-116 cells [5]): very less number of senescent cells |
| COc1cc(C(F)(F)F)ccc1C1=NOC2C1C(=O)C1(C)C3CCC4(C)C(C(C)C5CC(C)=C(CO)C(=O)O5)CCC4C3CC3OC31C2O (stereo not drawn) [W-9b, 2-methoxy-4-trifluorophenyl-2-isoxazoline withaferin A] |  |  | 15.8 ± 3.31 µM | > 100 µM | 66.2 ± 7.63 µM |  |
| COc1ccc(Br)cc1C1=NOC2C1C(=O)C1(C)C3CCC4(C)C(C(C)C5CC(C)=C(CO)C(=O)O5)CCC4C3CC3OC31C2O (stereo not drawn) [W-7a, 3-bromo-6-methoxyphenyl-2-isoxazoline withaferin A] |  |  | 8.1 ± 1.66 µM | 70.6 ± 5.18 µM | > 100 µM |  |
| CC1=C(CO)C(=O)OC(C(C)C2CCC3C4CC5OC56C(O)C5ON=C(c7ccc(Br)cc7)C5C(=O)C6(C)C4CCC23C)C1 (stereo not drawn) [W-3b, 4-bromophenyl-2-isoxazoline withaferin A] | 15.9 ± 1.67 µM | 1.82 ± 0.33 µM |  |  |  | IC50 (fR2 cells): 85.3 ± 9.5 µM |
| CC1=C(CO)C(=O)OC(C(C)C2CCC3C4CC5OC56C(O)C5ON=C(c7ccccc7C(F)(F)F)C5C(=O)C6(C)C4CCC23C)C1 (stereo not drawn) [W-8a, 2-trifluoromethylphenyl-2-isoxazoline withaferin A] |  |  | 7.5 ± 1.13 µM | 17.6 ± 1.68 µM | 28.2 ± 4.21 µM |  |
| CC1=C(CO)C(=O)OC(C(C)C2CCC3C4CC5OC56C(O)C5ON=C(c7ccc(C(F)(F)F)cc7)C5C(=O)C6(C)C4CCC23C)C1 (stereo not drawn) [W-11a, 4-trifluorophenyl-2-isoxazoline withaferin A] | 24.5 ± 2.55 µM |  |  | > 100 µM | > 100 µM |  |
| CC1=C(CO)C(=O)OC(C(C)C2CCC3C4CC5OC56C(O)C5ON=C(c7ccc([N+](=O)[O-])cc7)C5C(=O)C6(C)C4CCC23C)C1 (stereo not drawn) [W-2a, 4-nitrophenyl-2-isoxazoline withaferin A] | 8.2 ± 0.211 µM | 5.82 ± 0.418 µM |  |  | 52.1 ± 6.6 µM |  |
| CC1=C(CO)C(=O)OC(C(C)C2CCC3C4CC5OC56C(O)C5ON=C(c7ccncc7)C5C(=O)C6(C)C4CCC23C)C1 (stereo not drawn) [W-5b, pyridenyl-2-isoxazoline withaferin A] | 42.4 ± 3.19 µM | 9.7 ± 0.55 µM |  |  |  | IC50 (fR2 cells): 91.2 ± 7.33 µM |
| CC1=C(CO)C(=O)OC(C(C)C2CCC3C4CC5OC56C(O)C5ON=C(c7ccncc7)C5C(=O)C6(C)C4CCC23C)C1 (stereo not drawn) [W-5a, pyridenyl-2-isoxazoline withaferin A] |  | 3.52 ± 0.185 µM | 63.8 ± 5.43 µM |  | > 100 µM |  |
| CC1=C(CO)C(=O)OC(C(C)C2CCC3C4CC5OC56C(O)C5ON=C(c7ccc(F)cc7)C5C(=O)C6(C)C4CCC23C)C1 (stereo not drawn) [W-4a, 4-fluorophenyl-2-isoxazoline withaferin A] | 19.6 ± 1.81 µM | > 100 µM |  |  |  | IC50 (fR2 cells): > 100 µM |
| CC1=C(CO)C(=O)OC(C(C)C2CCC3C4CC5OC56C(O)C5ON=C(c7ccc(Cl)cc7Cl)C5C(=O)C6(C)C4CCC23C)C1 (stereo not drawn) [W-6a] | > 100 µM | 2.28 ± 0.265 µM |  |  | > 100 µM |  |
| O=c1[nH]cc(F)c(=O)[nH]1 [5-FU, 5-fluorouracil, reference compound] |  |  |  |  |  | Inhibition in tumor volume ([6]; Balb/c mice): 78.4%; Inhibition in tumor weight ([6]; vs normal saline group): 86.7% |
| CC1=C(CO)C(=O)O[C@@H]([C@@H](C)C2CCC3C4C[C@H]5O[C@]56[C@@H](O)[C@@H]5ON=C(c7ccc(Cl)cc7)[C@@H]5C(=O)[C@]6(C)C4CC[C@@]32C)C1 (stereo partly drawn) [W-1b, 4-chlorophenyl-2-isoxazoline withaferin A] |  |  | 16.2 ± 0.676 µM | 1.64 ± 0.267 µM | 39.2 ± 3.81 µM |  |
| CC1=C(CO)C(=O)OC(C(C)C2CCC3C4CC5OC56C(O)C5ON=C(c7c(Cl)cccc7Cl)C5C(=O)C6(C)C4CCC23C)C1 (stereo not drawn) [W-10a, 2,6-dichlorophenyl-2-isoxazoline withaferin A] |  |  | 5.28 ± 0.561 µM | 58.3 ± 3.24 µM | 98.1 ± 7.18 µM |  |
| CC(=O)OCC1=C(C)C[C@H]([C@@H](C)C2CCC3C4C[C@H]5O[C@]56[C@@H](OC(C)=O)[C@@H]5ON=C(c7ccc(F)cc7)[C@@H]5C(=O)[C@]6(C)C4CC[C@@]32C)OC1=O (stereo partly drawn) [W-12b, 4-fluorophenyl-2-isoxazoline 4,27-acetylwithaferin A] |  |  | 5.29 ± 0.151 µM | 26.9 ± 2.22 µM | 75.6 ± 4.82 µM |  |
| CC1=C(CO)C(=O)OC(C(C)C2CCC3C4CC5OC56C(O)C5ON=C(c7ccc(Br)cc7)C5C(=O)C6(C)C4CCC23C)C1 (stereo not drawn) [W-3a, 4-bromophenyl-2-isoxazoline withaferin A] | 45.8 ± 2.34 µM | 95.5 ± 5.41 µM |  |  | > 100 µM |  |
| CC1=C(CO)C(=O)OC(C(C)C2CCC3C4CC5OC56C(O)C5ON=C(c7ccc(F)cc7)C5C(=O)C6(C)C4CCC23C)C1 (stereo not drawn) [W-4b, 4-fluorophenyl-2-isoxazoline withaferin A] | > 100 µM |  |  | > 100 µM | > 100 µM |  |
